Test results taken from patent publication US20260022142A1, “MACROCYCLIC IMMUNOMODULATORS” (Bristol-Myers Squibb Company, priority 2022, published 2026).
Bridge positions count the residues as written; N and C are the ends. Square brackets hold non-standard residues; d marks the D form. Peptide text beside a SMILES is read from it. * marks the point of attachment. ξ: configuration not given here. Bip = N[C@@H](Cc1ccc(-c2ccccc2)cc1)C(=O)O; Phe(3-Me) = Cc1cccc(C[C@H](N)C(=O)O)c1; NMeR = CN[C@@H](CCCNC(=N)N)C(=O)O; hArg = N=C(N)NCCCC[C@H](N)C(=O)O; Cha = N[C@@H](CC1CCCCC1)C(=O)O; Cit = NC(=O)NCCC[C@H](N)C(=O)O; Thr(3ξ) = CC(O)[C@H](N)C(=O)O; NMeNle = CCCC[C@H](NC)C(=O)O; Tle = CC(C)(C)[C@H](N)C(=O)O; 12Ado = NCCCCCCCCCCCC(=O)O; dOrn = NCCC[C@@H](N)C(=O)O; dDab = NCC[C@@H](N)C(=O)O; Carboxymethyl = O=C(O)C*; Orn = NCCC[C@H](N)C(=O)O; Aun = NCCCCCCCCCCC(=O)O; Dab = NCC[C@H](N)C(=O)O; Piv = CC(C)(C)C(=O)*

Biological target: T1, PD-1/PD-L1 interaction (PE-labeled human PD-L1-Ig binding to Jurkat cell line over-expressing human PD-1) (Homo sapiens, UniProt Q15116)
T1 construct: expressed in transfected cells; host or cells: Jurkat
Experiment: Jurkat-PD-1 Cell Binding High-Content Screening Assay (CBA)
Type: cell-based
Settings: Jurkat cell line over-expressing human PD-1; PE-labeled PD-L1-Ig 20 nM final; read-out: Jurkat hPD1-PDL1 IC50
Method in brief: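 Binding of fluorescent PD-L1-Ig (20 nM final) to Jurkat-PD-1 cells was measured by automated imaging after 1 h, following a 2 h compound pre-treatment at 37° C.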

T1 sequence (Q15116 25-288): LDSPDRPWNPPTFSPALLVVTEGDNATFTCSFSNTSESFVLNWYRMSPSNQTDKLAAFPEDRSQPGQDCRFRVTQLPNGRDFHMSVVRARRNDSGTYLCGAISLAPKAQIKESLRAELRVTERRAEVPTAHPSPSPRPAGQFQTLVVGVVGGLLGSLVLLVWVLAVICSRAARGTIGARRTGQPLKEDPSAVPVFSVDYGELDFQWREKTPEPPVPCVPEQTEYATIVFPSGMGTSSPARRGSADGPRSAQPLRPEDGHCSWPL

| IC50 [nM] | SMILES |
| --- | --- |
| 20.5 | Cc1cccc(C[C@@H]2NC(=O)[C@H](CC(=O)O)NC(=O)[C@H](Cc3ccc(OCC(=O)O)cc3)NC(=O)[C@H](CCCCNC(=N)N)NC(=O)CSC[C@@H](C(=O)N[C@H](CCC(=O)O)C(=O)NCCCCCCCCCCCC(=O)O)NC(=O)[C@H](C(C)O)NC(=O)[C@H](C(C)C)NC(=O)[C@H](CC3CCCCC3)NC(=O)[C@H](CCN)NC(=O)[C@@H](CC(C)C)NC(=O)[C@H](CCCN)NC(=O)[C@H](CCCNC(N)=O)NC(=O)[C@H](Cc3ccc(-c4ccccc4)cc3)NC(=O)[C@H](C(C)C)NC2=O)c1 (stereo partly drawn) [Compound 3552] ({CH2CO}-[hArg]Y(Carboxymethyl)D[Phe(3-Me)]V[Bip][Cit][Orn][dL][Dab][Cha]V[Thr(3ξ)]C[dE][12Ado]-OH; thioether N-14) |
| 37.3 | Cc1cccc(C[C@@H]2NC(=O)[C@H](CC(=O)O)NC(=O)[C@H](Cc3ccc(OCC(=O)O)cc3)NC(=O)[C@H](C(C)O)NC(=O)CSC[C@@H](C(=O)N[C@H](CCC(=O)O)C(=O)NCCCCCCCCCCCC(=O)O)NC(=O)[C@H](C(C)O)NC(=O)[C@H](C(C)C)NC(=O)[C@H](CC3CCCCC3)NC(=O)[C@H](CCN)NC(=O)[C@@H](CC(C)C)NC(=O)[C@H](CCCN)NC(=O)[C@H](CCCNC(N)=O)NC(=O)[C@H](Cc3ccc(-c4ccccc4)cc3)NC(=O)[C@H](C(C)C)NC2=O)c1 (stereo partly drawn) [Compound 3553] ({CH2CO}-[Thr(3ξ)]Y(Carboxymethyl)D[Phe(3-Me)]V[Bip][Cit][Orn][dL][Dab][Cha]V[Thr(3ξ)]C[dE][12Ado]-OH; thioether N-14) |
| 18.4 | Cc1cccc(C[C@@H]2NC(=O)[C@H](CC(=O)O)NC(=O)[C@H](Cc3ccc(OCC(=O)O)cc3)NC(=O)[C@H](C(C)O)NC(=O)CSC[C@@H](C(=O)N[C@@H](CCN)C(=O)NCCCCCCCCCCC(=O)O)NC(=O)[C@H](C(C)O)NC(=O)[C@H](C(C)C)NC(=O)[C@H](CC3CCCCC3)NC(=O)[C@H](CCN)NC(=O)[C@@H](CC(C)C)NC(=O)[C@H](CCCNC(=N)N)NC(=O)[C@H](CCCNC(N)=O)NC(=O)[C@H](Cc3ccc(-c4ccccc4)cc3)NC(=O)[C@H](C(C)C)NC2=O)c1 (stereo partly drawn) [Compound 3554] ({CH2CO}-[Thr(3ξ)]Y(Carboxymethyl)D[Phe(3-Me)]V[Bip][Cit]R[dL][Dab][Cha]V[Thr(3ξ)]C[Dab][Aun]-OH; thioether N-14) |
| 42.8 | CCCC[C@H]1C(=O)N[C@@H](Cc2ccc(OCC(=O)O)cc2)C(=O)N[C@@H](CC(=O)O)C(=O)N[C@@H](Cc2cccc(C)c2)C(=O)N[C@@H](C(C)C)C(=O)N[C@@H](Cc2ccc(-c3ccccc3)cc2)C(=O)N[C@@H](CCCNC(N)=O)C(=O)N[C@@H](CCCN)C(=O)N[C@H](CC(C)C)C(=O)N[C@@H](CCN)C(=O)N[C@@H](CC2CCCCC2)C(=O)N[C@@H](C(C)C)C(=O)N[C@@H](C(C)O)C(=O)N[C@H](C(=O)N[C@@H](CCN)C(=O)NCCCCCCCCCCC(=O)O)CSCC(=O)N1C (stereo partly drawn) [Compound 3555] ({CH2CO}-[NMeNle]Y(Carboxymethyl)D[Phe(3-Me)]V[Bip][Cit][Orn][dL][Dab][Cha]V[Thr(3ξ)]C[Dab][Aun]-OH; thioether N-14) |
| 13.2 | Cc1cccc(C[C@@H]2NC(=O)[C@H](CC(=O)O)NC(=O)[C@H](Cc3ccc(OCC(=O)O)cc3)NC(=O)[C@H](CCCNC(=N)N)NC(=O)CSC[C@@H](C(=O)N[C@@H](CCN)C(=O)NCCCCCCCCCCC(=O)O)NC(=O)[C@H](C(C)O)NC(=O)[C@H](C(C)C)NC(=O)[C@H](CC3CCCCC3)NC(=O)[C@H](CCN)NC(=O)[C@@H](CC(C)C)NC(=O)[C@H](CCCN)NC(=O)[C@H](CCCCNC(=O)C(C)(C)C)NC(=O)[C@H](Cc3ccc(-c4ccccc4)cc3)NC(=O)[C@H](Cc3ccc(O)cc3)NC2=O)c1 (stereo partly drawn) [Compound 3556] ({CH2CO}-RY(Carboxymethyl)D[Phe(3-Me)]Y[Bip]K(Piv)[Orn][dL][Dab][Cha]V[Thr(3ξ)]C[Dab][Aun]-OH; thioether N-14) |
| 29.8 | CC(=O)NCCCC[C@@H]1NC(=O)[C@H](Cc2ccc(-c3ccccc3)cc2)NC(=O)[C@H](C(C)C)NC(=O)[C@H](Cc2cccc(C)c2)NC(=O)[C@H](CC(=O)O)NC(=O)[C@H](Cc2ccc(OCC(=O)O)cc2)NC(=O)[C@H](CCCNC(=N)N)NC(=O)CSC[C@@H](C(=O)N[C@H](CCN)C(=O)NCCCCCCCCCCC(=O)O)NC(=O)[C@H](C(C)O)NC(=O)[C@H](C(C)C)NC(=O)[C@H](CC2CCCCC2)NC(=O)[C@H](CCN)NC(=O)[C@@H](CC(C)C)NC(=O)[C@H](CCCN)NC1=O (stereo partly drawn) [Compound 3558] ({CH2CO}-RY(Carboxymethyl)D[Phe(3-Me)]V[Bip]K(Ac)[Orn][dL][Dab][Cha]V[Thr(3ξ)]C[dDab][Aun]-OH; thioether N-14) |
| 14.1 | CC(=O)NCCCC[C@@H]1NC(=O)[C@H](Cc2ccc(-c3ccccc3)cc2)NC(=O)[C@H](C(C)C)NC(=O)[C@H](Cc2cccc(C)c2)NC(=O)[C@H](CC(=O)O)NC(=O)[C@H](Cc2ccc(OCC(=O)O)cc2)NC(=O)[C@H](CCCNC(=N)N)NC(=O)CSC[C@@H](C(=O)N[C@H](CCCN)C(=O)NCCCCCCCCCCC(=O)O)NC(=O)[C@H](C(C)O)NC(=O)[C@H](C(C)C)NC(=O)[C@H](CC2CCCCC2)NC(=O)[C@H](CCN)NC(=O)[C@@H](CC(C)C)NC(=O)[C@H](CCCN)NC1=O (stereo partly drawn) [Compound 3559] ({CH2CO}-RY(Carboxymethyl)D[Phe(3-Me)]V[Bip]K(Ac)[Orn][dL][Dab][Cha]V[Thr(3ξ)]C[dOrn][Aun]-OH; thioether N-14) |
| 17.9 | CC(=O)NCCCC[C@@H]1NC(=O)[C@H](Cc2ccc(-c3ccccc3)cc2)NC(=O)[C@H](C(C)C)NC(=O)[C@H](Cc2cccc(C)c2)NC(=O)[C@H](CC(=O)O)NC(=O)[C@H](Cc2ccc(OCC(=O)O)cc2)NC(=O)[C@H](CCCNC(=N)N)NC(=O)CSC[C@@H](C(=O)N[C@@H](CCN)C(=O)NCCCCCCCCCCC(=O)O)NC(=O)[C@H](C(C)O)NC(=O)[C@H](C(C)(C)C)NC(=O)[C@H](CC2CCCCC2)NC(=O)[C@H](CCN)NC(=O)[C@@H](CC(C)C)NC(=O)[C@H](CCCN)NC1=O (stereo partly drawn) [Compound 3560] ({CH2CO}-RY(Carboxymethyl)D[Phe(3-Me)]V[Bip]K(Ac)[Orn][dL][Dab][Cha][Tle][Thr(3ξ)]C[Dab][Aun]-OH; thioether N-14) |
| 40.5 | Cc1cccc(C[C@@H]2NC(=O)[C@H](CC(=O)O)NC(=O)[C@H](Cc3ccc(OCC(=O)O)cc3)NC(=O)[C@H](CCCNC(=N)N)NC(=O)CSC[C@@H](C(=O)N[C@H](CO)C(=O)NCCCCCCCCCCCC(=O)O)NC(=O)[C@H](C(C)O)NC(=O)[C@H](C(C)C)NC(=O)[C@H](CC3CCCCC3)NC(=O)[C@H](CCN)NC(=O)[C@@H](CC(C)C)NC(=O)[C@H](CCCN)NC(=O)[C@H](CCCNC(N)=O)NC(=O)[C@H](Cc3ccc(-c4ccccc4)cc3)NC(=O)[C@H](C(C)C)NC2=O)c1 (stereo partly drawn) [Compound 3561] ({CH2CO}-RY(Carboxymethyl)D[Phe(3-Me)]V[Bip][Cit][Orn][dL][Dab][Cha]V[Thr(3ξ)]C[dS][12Ado]-OH; thioether N-14) |
| 28.4 | Cc1cccc(C[C@@H]2NC(=O)[C@H](CC(=O)O)NC(=O)[C@H](Cc3ccc(OCC(=O)O)cc3)NC(=O)[C@H](CCCNC(=N)N)N(C)C(=O)CSC[C@@H](C(=O)N[C@@H](CCN)C(=O)NCCCCCCCCCCC(=O)O)NC(=O)[C@H](C(C)O)NC(=O)[C@H](C(C)C)NC(=O)[C@H](CC3CCCCC3)NC(=O)[C@H](CCN)NC(=O)[C@@H](CC(C)C)NC(=O)[C@H](CCCN)NC(=O)[C@H](CCCNC(N)=O)NC(=O)[C@H](Cc3ccc(-c4ccccc4)cc3)NC(=O)[C@H](C(C)C)NC2=O)c1 (stereo partly drawn) [Compound 3562] ({CH2CO}-[NMeR]Y(Carboxymethyl)D[Phe(3-Me)]V[Bip][Cit][Orn][dL][Dab][Cha]V[Thr(3ξ)]C[Dab][Aun]-OH; thioether N-14) |
